Reference: PubChem BioAssay (NCI)
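Method: 48-hour compound exposure of cells in 96-well plates, five concentrations, linear interpolation of endpoints. GI50 is the concentration that inhibits growth by half. The concentration for full growth arrest is given as TGI.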

Experiments:
Experiment in all cases: growth of human tumour cells (NCI), 48 h
[1] = test system: HCC-2998 colon
[2] = test system: OVCAR-8 ovarian
[3] = test system: SF-295 CNS
[4] = test system: HT29 colon
[5] = test system: MDA-MB-435
[6] = test system: HOP-92 NSCLC
[7] = test system: OVCAR-5 ovarian
[8] = test system: 786-0 renal
[9] = test system: IGROV1 ovarian
[10] = test system: NCI/ADR-RES ovarian
[11] = test system: MOLT-4 leukemia
[12] = test system: HL-60(TB) leukemia
[13] = test system: PC-3 prostate
[14] = test system: BT-549 breast
[15] = test system: UACC-257 melanoma
[16] = test system: NCI-H460 lung
[17] = test system: NCI-H226 lung
[18] = test system: OVCAR-3 ovarian
[19] = test system: RPMI-8226 leukemia
[20] = test system: RXF 393 renal
[21] = test system: UACC-62 melanoma
[22] = test system: A498 renal
[23] = test system: K-562 leukemia
[24] = test system: HCT-116 colon
[25] = test system: NCI-H23 lung
[26] = test system: SNB-19 CNS
[27] = test system: KM12 colon
[28] = test system: OVCAR-4 ovarian
[29] = test system: CAKI-1 renal
[30] = test system: A549 NSCLC
[31] = test system: SK-MEL-2 melanoma
[32] = test system: SK-OV-3 ovarian
[33] = test system: SN12C renal
[34] = test system: DU-145 prostate
[35] = test system: LOX IMVI melanoma
[36] = test system: TK-10 renal
[37] = test system: SK-MEL-28 melanoma
[38] = test system: NCI-H522 lung
[39] = test system: T-47D breast
[40] = test system: COLO 205 colon
[41] = test system: M14 melanoma
[42] = test system: SF-539 CNS
[43] = test system: SK-MEL-5 melanoma
[44] = test system: MALME-3M melanoma
[45] = test system: HOP-62 NSCLC
[46] = test system: SF-268 CNS
[47] = test system: UO-31 renal
[48] = test system: CCRF-CEM leukemia
[49] = test system: MCF7 breast
[50] = test system: MDA-MB-231 breast
[51] = test system: HS 578T breast
[52] = test system: SR leukemia
[53] = test system: SW-620 colon
[54] = test system: HCT-15 colon
[55] = test system: SNB-75 CNS
[56] = test system: ACHN renal
[57] = test system: U251 CNS

Question: What does the source list for CS(=O)(=O)Nc1ccc(Nc2c3ccccc3nc3cc(N)ccc23)cc1?
Answer: GI50 [1]: 5.22 µM; TGI [1]: 24.4 µM; GI50 [2]: 0.376 µM; TGI [2]: 22.2 µM; GI50 [3]: 0.227 µM; TGI [3]: 6.79 µM; GI50 [4]: 5.15 µM; TGI [4]: 31.7 µM; GI50 [5]: 5.79 µM; TGI [5]: 21.6 µM; GI50 [6]: 0.398 µM; TGI [6]: 4.4 µM; GI50 [7]: 5.57 µM; TGI [7]: 39.7 µM; GI50 [8]: 0.277 µM; TGI [8]: 4.66 µM; GI50 [9]: 5.38 µM; TGI [9]: > 73.6 µM; GI50 [10]: > 100 µM; TGI [10]: > 100 µM; GI50 [11]: 0.0194 µM; TGI [11]: 0.987 µM; GI50 [12]: 0.769 µM; TGI [12]: 8.51 µM; GI50 [13]: 1.31 µM; TGI [13]: 27.1 µM; GI50 [14]: 1.35 µM; TGI [14]: 8.41 µM; GI50 [15]: 1.48 µM; TGI [15]: 14.9 µM; GI50 [16]: 0.0255 µM; TGI [16]: 2.6 µM; GI50 [17]: 0.246 µM; TGI [17]: 3.89 µM; GI50 [18]: 1.7 µM; TGI [18]: 8.83 µM; GI50 [19]: 0.567 µM; TGI [19]: 6.84 µM; GI50 [20]: 12.5 µM; TGI [20]: 34.9 µM; GI50 [21]: 0.555 µM; TGI [21]: 14.8 µM; GI50 [22]: 1.32 µM; TGI [22]: 17.4 µM; GI50 [23]: 1.31 µM; TGI [23]: 23.9 µM; GI50 [24]: 0.717 µM; TGI [24]: 29.2 µM; GI50 [25]: 0.436 µM; TGI [25]: 12.8 µM; GI50 [26]: 0.241 µM; TGI [26]: 15.4 µM; GI50 [27]: 0.499 µM; TGI [27]: 7.14 µM; GI50 [28]: 2.92 µM; TGI [28]: 26.8 µM; GI50 [29]: 0.319 µM; TGI [29]: 13 µM; GI50 [30]: 0.062 µM; TGI [30]: 15.6 µM; GI50 [31]: 2.26 µM; TGI [31]: 7.04 µM; GI50 [32]: 1.31 µM; TGI [32]: 27.7 µM; GI50 [33]: 0.15 µM; TGI [33]: 4.88 µM; GI50 [34]: 0.48 µM; TGI [34]: 26 µM; GI50 [35]: 0.418 µM; TGI [35]: 15.2 µM; GI50 [36]: 6.08 µM; TGI [36]: 31.7 µM; GI50 [37]: 1.9 µM; TGI [37]: 16.2 µM; GI50 [38]: 0.164 µM; TGI [38]: 2.69 µM; GI50 [39]: 0.0806 µM; TGI [39]: 2.52 µM; GI50 [40]: 2.51 µM; TGI [40]: 20 µM; GI50 [41]: 0.361 µM; TGI [41]: 7.1 µM; GI50 [42]: 0.531 µM; TGI [42]: 9.47 µM; GI50 [43]: 0.615 µM; TGI [43]: 5.45 µM; GI50 [44]: 0.62 µM; TGI [44]: 3.66 µM; GI50 [45]: 0.26 µM; TGI [45]: 10.2 µM; GI50 [46]: 0.0222 µM; TGI [46]: 5.69 µM; GI50 [47]: 3.13 µM; TGI [47]: > 100 µM; GI50 [48]: 0.0776 µM; TGI [48]: 2.04 µM; GI50 [49]: 0.052 µM; TGI [49]: 9.16 µM; GI50 [50]: 12.4 µM; TGI [50]: 34 µM; GI50 [51]: 1.72 µM; TGI [51]: 13.4 µM; GI50 [52]: 0.035 µM; TGI [52]: 1.19 µM; GI50 [53]: 0.561 µM; TGI [53]: 30 µM; GI50 [54]: 11 µM; TGI [54]: > 100 µM; GI50 [55]: 0.726 µM; TGI [55]: 12.4 µM; GI50 [56]: 0.231 µM; TGI [56]: 17.8 µM; GI50 [57]: 0.0794 µM; TGI [57]: 1.3 µM

Question: Which results are given for CCOC(=O)C1=C(N)CCC1C (configuration not stated)?
Answer: GI50 [1]: > 100 µM; TGI [1]: > 100 µM; GI50 [2]: > 100 µM; TGI [2]: > 100 µM; GI50 [4]: > 100 µM; TGI [4]: > 100 µM; GI50 [5]: > 100 µM; TGI [5]: > 100 µM; GI50 [6]: 41.2 µM; TGI [6]: > 100 µM; GI50 [7]: > 100 µM; TGI [7]: > 100 µM; GI50 [8]: > 100 µM; TGI [8]: > 100 µM; GI50 [9]: > 100 µM; TGI [9]: > 100 µM; GI50 [10]: > 100 µM; TGI [10]: > 100 µM; GI50 [11]: 22.7 µM; TGI [11]: 65.5 µM; GI50 [12]: 69.8 µM; TGI [12]: > 100 µM; GI50 [13]: > 100 µM; TGI [13]: > 100 µM; GI50 [14]: > 100 µM; TGI [14]: > 100 µM; GI50 [16]: > 100 µM; TGI [16]: > 100 µM; GI50 [17]: > 100 µM; TGI [17]: > 100 µM; GI50 [18]: > 100 µM; TGI [18]: > 100 µM; GI50 [19]: > 100 µM; TGI [19]: > 100 µM; GI50 [20]: > 100 µM; TGI [20]: > 100 µM; GI50 [21]: > 100 µM; TGI [21]: > 100 µM; GI50 [22]: > 100 µM; TGI [22]: > 100 µM; GI50 [23]: > 100 µM; TGI [23]: > 100 µM; GI50 [24]: > 100 µM; TGI [24]: > 100 µM; GI50 [25]: > 100 µM; TGI [25]: > 100 µM; GI50 [26]: > 100 µM; TGI [26]: > 100 µM; GI50 [27]: > 100 µM; TGI [27]: > 100 µM; GI50 [28]: > 100 µM; TGI [28]: > 100 µM; GI50 [29]: > 100 µM; TGI [29]: > 100 µM; GI50 [30]: > 100 µM; TGI [30]: > 100 µM; GI50 [31]: > 100 µM; TGI [31]: > 100 µM; GI50 [32]: > 100 µM; TGI [32]: > 100 µM; GI50 [33]: > 100 µM; TGI [33]: > 100 µM; GI50 [34]: > 100 µM; TGI [34]: > 100 µM; GI50 [35]: > 100 µM; TGI [35]: > 100 µM; GI50 [36]: > 100 µM; TGI [36]: > 100 µM; GI50 [37]: > 100 µM; TGI [37]: > 100 µM; GI50 [38]: > 100 µM; TGI [38]: > 100 µM; GI50 [39]: > 100 µM; TGI [39]: > 100 µM; GI50 [40]: > 100 µM; TGI [40]: > 100 µM; GI50 [41]: > 100 µM; TGI [41]: > 100 µM; GI50 [42]: > 100 µM; TGI [42]: > 100 µM; GI50 [43]: > 100 µM; TGI [43]: > 100 µM; GI50 [44]: > 100 µM; TGI [44]: > 100 µM; GI50 [45]: > 100 µM; TGI [45]: > 100 µM; GI50 [46]: > 100 µM; TGI [46]: > 100 µM; GI50 [47]: > 100 µM; TGI [47]: > 100 µM; GI50 [48]: > 100 µM; TGI [48]: > 100 µM; GI50 [49]: > 100 µM; TGI [49]: > 100 µM; GI50 [50]: > 100 µM; TGI [50]: > 100 µM; GI50 [51]: > 100 µM; TGI [51]: > 100 µM; GI50 [52]: 8.35 µM; TGI [52]: > 100 µM; GI50 [53]: > 100 µM; TGI [53]: > 100 µM; GI50 [54]: > 100 µM; TGI [54]: > 100 µM; GI50 [55]: > 100 µM; TGI [55]: > 100 µM; GI50 [56]: > 100 µM; TGI [56]: > 100 µM
